Source: US5843954A, “Camptothecin derivatives, preparations thereof and antitumor agents” (priority 1994, dated 1998)
≈ marks a conversion by molar mass, not a printed value. Counter-ions that a name gives are not always drawn.

Tests used:
[1] = Acute toxicity test by intraperitoneal administration; conditions: mouse, in vivo, ip, ICR male mice, 1 week observation
Procedure: Acute toxicity test was conducted by intraperitoneal administration using a group of twenty ICR male mice (4 weeks old, body weight around 20 g).
LD50 value was calculated by the Richfield-Willcokson method from a lethal ratio observing the fate of mice during 1 week after administration of a test compound.

[2] = Antitumor activity for L1210 (life prolonging effect, mouse leukemia transplanted intraperitoneally); type: in vivo; conditions: mouse, in vivo, ip; numerator of therapeutic index; i.p. total dose; read-out: Maximum tolerable dose
Procedure: (§1) 5×10^5 cells of mouse leukemia L1210 were transplanted intraperitoneally to a group of six female CDF1 mice (7 weeks old, body weight 17-19 g). The test compound was administered intraperitoneally on day 1, 5 and 9 and its life prolonging effect was observed.
(§2) In a case of the administration of a test compound as an acid addition salt the test compound was dissolved in water. The total administration amount was 1.56 mg/kg-400 mg/kg. The antitumor activity was expressed by the value (T/C%) wherein T denotes the mean survival days in the drug administered group and C denotes those in the non administered group. In case of equal to or more than 125% the drug is considered to be effective.

[3] = test system: mouse leukemia L1210; experiment: as above; type: in vivo; conditions: for 40-day survivors: group of six female CDF1 mice; for Therapeutic Index (Maximum tolerable dose/Minimum effective dose): i.p., L1210, CDF1 mice; for minimal effective dose: Mus musculus, L1210, ip, read-out: Minimum effective dose
Procedure: as §1, §2

[4] = Water solubility; type: physicochemical
[5] = denominator of therapeutic index, i.p. total dose

CC[C@@](O)(C(=O)O)c1cc2n(c(=O)c1CO)Cc1cc3ccccc3nc1-2 [CPT-Na salt, reference compound]
LD50 at 168 h [1]: 227 mg/kg
MTD [2]: 60 mg/kg
Optimum dose: Total dose ([3]; CDF1 mice, i.p. on day 1, 5 and 9, total dose): 60 mg/kg
40-day survivors ([3]; at optimum dose): 0/6
T/C % ([3]; at optimum dose, i.p. on day 1, 5 and 9, mean survival days treated/non administered, >=125% effective): 203%
Minimum effective dose [3, 5]: 10 mg/kg
Therapeutic Index (Maximum tolerable dose/Minimum effective dose) [3]: 6

CCOc1ccc2nc3c(c(C)c2c1)Cn1c-3cc([C@@](O)(CC)C(=O)NCCN(C)C)c(COC(=O)CCSC)c1=O [Compound C1]
LD50 at 168 h [1]: 164 mg/kg
solubility [4]: > 64 mg/mL
MTD [2]: 6.25 mg/kg
minimal effective dose [3, 5]: 1.56 mg/kg
40-day survivors ([3]; at optimum dose): 0/6
Therapeutic Index (Maximum tolerable dose/Minimum effective dose) [3]: 4

CC[C@@](O)(C(=O)NCCN(C)C)c1cc2n(c(=O)c1COC(=O)CCSC)Cc1c-2nc2cc(Br)ccc2c1C [Compound C2]
LD50 at 168 h [1]: 241 mg/kg
solubility [4]: > 67 mg/mL
MTD [2]: 25 mg/kg
minimal effective dose [3, 5]: 3.13 mg/kg
40-day survivors ([3]; at optimum dose): 0/6
Therapeutic Index (Maximum tolerable dose/Minimum effective dose) [3]: 8

CCC(=O)OCc1c([C@@](O)(CC)C(=O)NCCN(C)C)cc2n(c1=O)Cc1c-2nc2ccc(Cl)cc2c1CC [Compound C3]
LD50 at 168 h [1]: 186 mg/kg
solubility [4]: 29 mg/mL (≈ 52.2 mM)
MTD [2]: 6.25 mg/kg
minimal effective dose [3, 5]: < 1.56 mg/kg
40-day survivors ([3]; at optimum dose): 1/6
Therapeutic Index (Maximum tolerable dose/Minimum effective dose) [3]: > 4

CCCC(=O)OCc1c([C@@](O)(CC)C(=O)NCCN(C)C)cc2n(c1=O)Cc1c-2nc2ccc(Cl)cc2c1CC [Compound C4]
LD50 at 168 h [1]: 142 mg/kg
solubility [4]: 41 mg/mL (≈ 72 mM)
MTD [2]: 6.25 mg/kg
minimal effective dose [3, 5]: < 1.56 mg/kg
40-day survivors ([3]; at optimum dose): 1/6
Therapeutic Index (Maximum tolerable dose/Minimum effective dose) [3]: > 4

CCc1c2c(nc3ccc(Cl)cc13)-c1cc([C@@](O)(CC)C(=O)NCCN(C)C)c(COC(=O)CCSC)c(=O)n1C2 [Compound C5]
LD50 at 168 h [1]: 168 mg/kg
solubility [4]: 21 mg/mL (≈ 34.9 mM)
MTD [2]: 6.25 mg/kg
minimal effective dose [3, 5]: < 1.56 mg/kg
40-day survivors ([3]; at optimum dose): 3/6
Therapeutic Index (Maximum tolerable dose/Minimum effective dose) [3]: > 4

CCc1c2c(nc3ccc(Br)cc13)-c1cc([C@@](O)(CC)C(=O)NCCN(C)C)c(COC(=O)CCSC)c(=O)n1C2 [Compound C6]
LD50 at 168 h [1]: 116 mg/kg
solubility [4]: 25 mg/mL (≈ 38.7 mM)
MTD [2]: 6.25 mg/kg
minimal effective dose [3, 5]: < 1.56 mg/kg
40-day survivors ([3]; at optimum dose): 1/6
Therapeutic Index (Maximum tolerable dose/Minimum effective dose) [3]: > 4

CCc1c2c(nc3ccc(C)cc13)-c1cc([C@@](O)(CC)C(=O)NCCN(C)C)c(COC(=O)CCSC)c(=O)n1C2 [Compound C7]
LD50 at 168 h [1]: 234 mg/kg
solubility [4]: 21 mg/mL (≈ 36.2 mM)
MTD [2]: 100 mg/kg
minimal effective dose [3, 5]: 3.13 mg/kg
40-day survivors ([3]; at optimum dose): 5/6
Therapeutic Index (Maximum tolerable dose/Minimum effective dose) [3]: 32

CCC(=O)OCc1c([C@@](O)(CC)C(=O)NCCN(C)C)cc2n(c1=O)Cc1c-2nc2cc(F)ccc2c1CC [Compound C8]
LD50 at 168 h [1]: 124 mg/kg
solubility [4]: 20 mg/mL (≈ 37.1 mM)
MTD [2]: 12.5 mg/kg
minimal effective dose [3, 5]: 1.56 mg/kg
40-day survivors ([3]; at optimum dose): 4/6
Therapeutic Index (Maximum tolerable dose/Minimum effective dose) [3]: 8

CCCC(=O)OCc1c([C@@](O)(CC)C(=O)NCCN(C)C)cc2n(c1=O)Cc1c-2nc2cc(F)ccc2c1CC [Compound C9]
LD50 at 168 h [1]: 152 mg/kg
solubility [4]: > 59 mg/mL
MTD [2]: 12.5 mg/kg
minimal effective dose [3, 5]: 1.56 mg/kg
40-day survivors ([3]; at optimum dose): 2/6
Therapeutic Index (Maximum tolerable dose/Minimum effective dose) [3]: 8

CCc1c2c(nc3cc(F)ccc13)-c1cc([C@@](O)(CC)C(=O)NCCN(C)C)c(COC(=O)CCSC)c(=O)n1C2 [Compound C10]
LD50 at 168 h [1]: 146 mg/kg
solubility [4]: > 62 mg/mL
MTD [2]: 12.5 mg/kg
minimal effective dose [3, 5]: 1.56 mg/kg
40-day survivors ([3]; at optimum dose): 1/6
Therapeutic Index (Maximum tolerable dose/Minimum effective dose) [3]: 8

CCC(=O)OCc1c([C@@](O)(CC)C(=O)NCCN(C)C)cc2n(c1=O)Cc1c-2nc2cc(F)c(F)cc2c1CC [Compound C13]
LD50 at 168 h [1]: 67.6 mg/kg
solubility [4]: > 59 mg/mL
40-day survivors ([3]; at optimum dose): 0/6

CCCC(=O)OCc1c([C@@](O)(CC)C(=O)NCCN(C)C)cc2n(c1=O)Cc1c-2nc2cc(F)c(F)cc2c1CC [Compound C14]
LD50 at 168 h [1]: 98.3 mg/kg
solubility [4]: > 60 mg/mL
40-day survivors ([3]; at optimum dose): 1/6

CCc1c2c(nc3cc(F)c(F)cc13)-c1cc([C@@](O)(CC)C(=O)NCCN(C)C)c(COC(=O)CCSC)c(=O)n1C2 [Compound C15]
LD50 at 168 h [1]: 85.2 mg/kg
solubility [4]: > 64 mg/mL
40-day survivors ([3]; at optimum dose): 0/6

CCc1c2c(nc3cc(F)c(OC)cc13)-c1cc([C@@](O)(CC)C(=O)NCCN(C)C)c(COC(=O)CCSC)c(=O)n1C2 [Compound C22]
LD50 at 168 h [1]: 68.6 mg/kg
solubility [4]: > 65 mg/mL
40-day survivors ([3]; at optimum dose): 0/6

CC=CC(=O)OCc1c([C@@](O)(CC)C(=O)NCCN(C)C)cc2n(c1=O)Cc1c-2nc2ccc(O)cc2c1CC [Compound C34]
solubility [4]: > 59 mg/mL

CCc1c2c(nc3ccc(C)cc13)-c1cc([C@@](O)(CC)C(=O)NCCN(C)C)c(COC(=O)c3ccncc3)c(=O)n1C2 [Compound C39]
LD50 at 168 h [1]: 320 mg/kg
MTD [2]: 50 mg/kg
minimal effective dose [3, 5]: 3.13 mg/kg
40-day survivors ([3]; at optimum dose): 3/6
Therapeutic Index (Maximum tolerable dose/Minimum effective dose) [3]: 16

CCc1c2c(nc3ccc(Cl)cc13)-c1cc([C@@](O)(CC)C(=O)NCCN(C)C)c(COC(=O)c3ccncc3)c(=O)n1C2 [Compound C40]
LD50 at 168 h [1]: 213 mg/kg
MTD [2]: 6.25 mg/kg
minimal effective dose [3, 5]: 1.56 mg/kg
40-day survivors ([3]; at optimum dose): 1/6
Therapeutic Index (Maximum tolerable dose/Minimum effective dose) [3]: 4

CCc1c2c(nc3cc(F)ccc13)-c1cc([C@@](O)(CC)C(=O)NCCN(C)C)c(COC(=O)c3ccncc3)c(=O)n1C2 [Compound C41]
LD50 at 168 h [1]: 220 mg/kg
MTD [2]: 25 mg/kg
minimal effective dose [3, 5]: < 1.56 mg/kg
40-day survivors ([3]; at optimum dose): 2/6
Therapeutic Index (Maximum tolerable dose/Minimum effective dose) [3]: > 16

CCc1c2c(nc3cc(F)c(C)cc13)-c1cc([C@@](O)(CC)C(=O)NCCN(C)C)c(COC(=O)c3ccncc3)c(=O)n1C2 [Compound C42]
LD50 at 168 h [1]: 310 mg/kg
MTD [2]: 12.5 mg/kg
minimal effective dose [3, 5]: 1.56 mg/kg
40-day survivors ([3]; at optimum dose): 2/6
Therapeutic Index (Maximum tolerable dose/Minimum effective dose) [3]: > 8

CCc1c2c(nc3cc(F)c(OC)cc13)-c1cc([C@@](O)(CC)C(=O)NCCN(C)C)c(COC(=O)c3ccncc3)c(=O)n1C2 [Compound C43]
LD50 at 168 h [1]: 165 mg/kg
MTD [2]: 6.25 mg/kg
minimal effective dose [3, 5]: 1.56 mg/kg
40-day survivors ([3]; at optimum dose): 2/6
Therapeutic Index (Maximum tolerable dose/Minimum effective dose) [3]: > 4

CCc1c2c(nc3ccc(O)cc13)-c1cc([C@@](O)(CC)C(=O)NCCN(C)C)c(COC(C)=O)c(=O)n1C2 [Compound C45]
LD50 at 168 h [1]: 376 mg/kg
MTD [2]: 400 mg/kg
minimal effective dose [3, 5]: 100 mg/kg
40-day survivors ([3]; at optimum dose): 0/6
Therapeutic Index (Maximum tolerable dose/Minimum effective dose) [3]: 4

CCc1c2c(nc3ccc(O)cc13)-c1cc([C@@](O)(CC)C(=O)NCCN(C)C)c(COC(=O)C(C)C)c(=O)n1C2 [Compound C46]
LD50 at 168 h [1]: 478 mg/kg
MTD [2]: 400 mg/kg
minimal effective dose [3, 5]: 25 mg/kg
40-day survivors ([3]; at optimum dose): 0/6
Therapeutic Index (Maximum tolerable dose/Minimum effective dose) [3]: 16

CCOCCC(=O)OCc1c([C@@](O)(CC)C(=O)NCCN(C)C)cc2n(c1=O)Cc1c-2nc2ccc(O)cc2c1CC [Compound C47]
LD50 at 168 h [1]: 471 mg/kg
MTD [2]: 200 mg/kg
minimal effective dose [3, 5]: 50 mg/kg
40-day survivors ([3]; at optimum dose): 0/6
Therapeutic Index (Maximum tolerable dose/Minimum effective dose) [3]: 4

CCc1c2c(nc3ccc(OC(C)=O)cc13)-c1cc([C@@](O)(CC)C(=O)NCCN(C)C)c(COC(=O)c3ccc(F)cc3)c(=O)n1C2 [Compound C48]
LD50 at 168 h [1]: 418 mg/kg
MTD [2]: 200 mg/kg
minimal effective dose [3, 5]: 25 mg/kg
40-day survivors ([3]; at optimum dose): 0/6
Therapeutic Index (Maximum tolerable dose/Minimum effective dose) [3]: 8
